Results reported in patent publication US11478474B2, “2-(3′-(hydroxymethyl)-1-methyl-5-((5-(2-methyl-4-(oxetan-3-yl)piperazin-1-yl)pyridin-2-yl)amino)-6-oxo-1,6-dihydro-[3,4′-bipyridin]-2′-yl)-7,7-dimethyl-7,8-dihydro-2H-cyclopenta[4,5]pyrrolo[1,2-a]pyrazin-1(6H)-one as a BTK inhibitor” (HUTCHISON MEDIPHARMA LIMITED, priority 2020, dated 2022).

What was measured:
BTK recombinant protein = BTK recombinant protein (Homo sapiens (Human), UniProt Q06187); assay: Determination of biochemical BTK (Z'-LYTE kinase assay)
Source text: Example 2 Determination of Biochemical BTK
(§1) 1. Reagents and Materials
BTK recombinant protein: Invitrogen, Cat #PV3363;
Z′-LYTE® kinase test kit-tyrosine 1 peptide: Invitrogen, Cat #PV3190;
Z′-LYTE® biochemical assay employs a fluorescence resonance energy transfer (FRET)—based, coupled-enzyme format and is based on the differential sensitivity of phosphorylated and non-phosphorylated peptides to proteolytic cleavage. Both ends of the short peptide substrate are labeled with two fluorescent groups to form a FRET paired combination. In the primary reaction (the Kinase Reaction), the kinase transfers the γ-phosphate of ATP to a single […] residue on the short peptide substrate. In the secondary reaction (the development reaction), the non-phosphorylated short peptides were recognized and cleaved by a site-specific protease (the development reagent). Phosphorylated short peptides can resist such cleavage. Cleavage of short peptides can disrupt the donor (such as coumarin) and receptor fluorophores (fluorescein) on the short peptides, while the phosphorylated short peptides can maintain FRET. The calculation method of the ratio is as follows, and the ratio of the respective emission signals generated by the donor fluorophores emitted (after excitation at 400 nm) to the receptors is calculated. Emission signal ratio=emitted light by coumarin (445 nm)/emitted light by fluorescein (520 nm). If the FRET short peptide is phosphorylated (such as no kinase inhibitor), the emitted light ratio will remain in a lower level. If the FRET short peptide is non-phosphorylated (such as kinase inhibitor), the emitted light ratio will be in a higher level. In this way, the inhibitory effects of different compound inhibitors on BTK kinase activity would be distinguished.
The experiment were carried out according to the instructions of the Z′-LYTE® kinase test kit-tyrosine 1 peptide. Reagent preparation: 1.33× kinase buffer: 5× kinase buffer was diluted with water to 1.33× kinase buffer; an enzyme solution: the kinase was dissolved in 1.33× kinase buffer with the final working concentration being 3.32 nM; a short peptide solution: a short peptide stock solution (1 mM dissolved in DMSO) was dissolved in 1.33× kinase buffer with the final working concentration being 2 μM; Z′-LYTE Tyr01 phosphorylated short peptide solution, 0.6 μl of stock solution (1 mM dissolved in DMSO) was dissolved in 149.4 μl of 1.33× kinase buffer; an ATP solution: an ATP stock solution (10 mM aqueous solution) was dissolved in 1.33× kinase buffer with the final working concentration being 32 μM; a color-developing solution: color-developing solution B was dissolved in color-developing buffer with the final working concentration being 1× color-developing solution; 4× compound preparation: the compound was diluted in 3-fold gradient concentration to finally obtain 4% DMSO aqueous solution containing different concentrations of the compound, with the final working concentration being 3000, 1000, 333.33, 111.11, 37.04, 12.35, 4.12, 1.37 nM, 8 concentration points in total.
Specific steps of the experiment: In the experiment, there were three control groups, each with 8 replicate wells, which were C1 100% inhibition group (no ATP), C2 0% inhibition group (with ATP), and C3 100% phosphorylation group, respectively. 2.5 μl of serially diluted compound was added to each well of a 384-well plate, with double replicate wells, and 4% DMSO solution was added to wells C1, C2, and C3. After that, except for wells C3, 2.5 μl of BTK enzyme solution was added to each remaining well, which was left to stand at 4° C. for 30 minutes. After that, except for wells C3, 2.5 μl of short peptide solution was added to each well, and 5 μl of phosphorylated short peptide solution was added to each of wells C3. 2.5 μl of 1.33× kinase buffer was added to each of wells C1 and C3, and 2.5 μl of ATP solution was added to each of the remaining wells. […]

[1] = molecular target: phosphorylated BTK in Ramos cells (Homo sapiens (Human), UniProt Q06187); assay: Determination of phosphorylated BTK in Ramos cells (BTK phospho-Y223 HTRF); format: cell-based; conditions: anti-human IgM + hydrogen peroxide stimulation
Description: Determination of Phosphorylated BTK in Ramos Cells
as §1
Ramos cells: Ramos cells were purchased from American Standard Biological Collection Center ATCC Cell Bank, PRMI 1640 medium containing L-glutamine, 1.5 g/L of sodium bicarbonate, 2.383 g/L of HEPES solution, 0.11 g/L of sodium pyruvate and 4.5 g/L of glucose was used, added 10% fetal bovine serum FBS, and placed in a 5% CO2, 37° C. cell incubator for normal culture;
Phosphorylated BTK HTRF detection kit (BTK phospho-Y223 HTRF kit): Cisbio, Cat #63ADK017PEH;
Ramos cells were starved in PRMI 1640 medium with 1% FBS for 2 hours. The starved Ramos cells were diluted with Hank's balanced salt solution to 5.0×10^6 cells/ml, seeded in a 96-well plate with 20 μL/well (1.0×10^5 cells/well), and cultured in a 5% CO2, 37° C. cell incubator. After culturing for 1 hour, the test compound was diluted with Hank's balanced salt solution in 4-fold gradient to the corresponding concentrations, and then 5 μL/well of the diluted test compound with different concentrations (the final concentrations of the test compound were 3.0, 0.75, 0.188, 0.047, 0.012, 0.0029, 0.0007 and 0.00018 μM, and the final concentration of DMSO was 0.3%, double replicate wells) or 5 μL/well of control solution (1.5% DMSO, 8 replicate wells) were added to 20 μL/well of cell culture system, which incubated together for another hour, then 5 μL/well of a mixed solution of human immunoglobulin M (final concentration was 10 μg/mL) and hydrogen peroxide (final concentration was 3.3 mM) diluted with Hank's balanced salt solution was added to the treating wells for the test compound and the control treating wells for anti-human immunoglobulin M, and 5 μL/well of Hank's balanced salt solution was added to negative control treating wells. The plate was incubated in a 5% CO2, 37° C. cell incubator for 10 minutes.
10 μL/well of cell lysis buffer was added to each well of a 96-well plate, which was mixed well and lysed at room temperature for 30 minutes. 16 μL/well of lysis buffer was pipetted to a new 384 well plate, and then added 4 μL/well of phosphorylated BTK antibody, centrifuged (1000 rpm) for 1 minute, then shaken for 1 minute, further centrifuged (1000 rpm) for 1 minute, and finally placed in a constant temperature incubator overnight. Detection was performed on the next day.
The 384 well plate incubated overnight in the constant temperature incubator was taken out to detect the luminescence signal using the Envision microwell plate reader at the […]. The reading value at 665 nm/615 nm of each well multiplied by 104 was used as the signal value of each well.
The average signal value of the wells supplemented with the mixed solution of human immunoglobulin M (final concentration was 10 μg/mL) and hydrogen peroxide (final concentration was 3.3 mM) without the test compound was regarded as the high value, and the average signal value of the wells without immunoglobulin M stimulation and without the test compound was regarded as the low value. According to the signal value in each well, the inhibition ratio (%) of each concentration of compounds was calculated, and the 205 model in XL-Fit 5.3 software (ID Business Solutions Limited) was used to obtain an IC50 value.
The inhibition ratio is calculated as follows: inhibition ratio (%)=100%−{(treating well for the test compound−negative control treating well)/(control treating well for anti-human immunoglobulin M−negative control treating well)}×100%, wherein,
Treating well for the test compound: represents the signal value of Ramos cells treated with anti-human immunoglobulin M, hydrogen peroxide and the test compound.
Control treating well for anti-human immunoglobulin M: represents the signal value of Ramos cells treated with anti-human immunoglobulin M, hydrogen peroxide but without the test compound. […]

Chain of BTK recombinant protein (Q06187 whole entry): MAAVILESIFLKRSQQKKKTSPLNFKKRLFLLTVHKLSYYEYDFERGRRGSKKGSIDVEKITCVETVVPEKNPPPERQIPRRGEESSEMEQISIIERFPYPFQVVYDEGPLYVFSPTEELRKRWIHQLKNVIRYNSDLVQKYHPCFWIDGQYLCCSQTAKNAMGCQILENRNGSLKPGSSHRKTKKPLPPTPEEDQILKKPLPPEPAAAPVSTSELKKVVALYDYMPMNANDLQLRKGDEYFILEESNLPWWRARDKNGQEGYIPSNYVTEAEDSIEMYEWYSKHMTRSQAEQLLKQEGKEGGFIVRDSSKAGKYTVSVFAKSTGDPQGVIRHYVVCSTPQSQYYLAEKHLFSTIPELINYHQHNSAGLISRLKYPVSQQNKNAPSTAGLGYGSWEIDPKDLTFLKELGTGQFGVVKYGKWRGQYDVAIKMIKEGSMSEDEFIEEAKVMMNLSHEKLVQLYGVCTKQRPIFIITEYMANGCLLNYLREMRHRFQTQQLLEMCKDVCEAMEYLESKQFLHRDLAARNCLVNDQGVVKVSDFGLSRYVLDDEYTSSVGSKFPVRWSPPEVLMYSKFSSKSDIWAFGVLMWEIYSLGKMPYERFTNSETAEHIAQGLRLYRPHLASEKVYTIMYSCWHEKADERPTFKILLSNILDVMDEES
Chain of phosphorylated BTK in Ramos cells (Q06187 whole entry): as above

| SMILES | IC50 (BTK recombinant protein) [nM] | IC50 [1] [nM] |
| --- | --- | --- |
| COC1CN(c2ccc(Nc3cc(-c4ccnc(-n5ccn6c7c(cc6c5=O)CC(C)(C)C7)c4CO)cn(C)c3=O)nc2)C1 [Compound 35] | 17 | 6 |
| Cn1cc(-c2ccnc(-n3ccn4c5c(cc4c3=O)CC(C)(C)C5)c2CO)cc(Nc2ccc(C3=CCN(C4COC4)CC3)cn2)c1=O [Compound 36] | 31 | 12 |
| Cn1cc(-c2ccnc(-n3ccn4c5c(cc4c3=O)CC(C)(C)C5)c2CO)cc(Nc2ccc(-c3ccc(C4COC4)cc3)cn2)c1=O [Compound 37] | 132 | 11 |
| [2H]C([2H])([2H])n1cc(-c2ccnc(-n3ccn4c5c(cc4c3=O)CC(C)(C)C5)c2CO)cc(Nc2ccc(N3CCN(C4COC4)C[C@@H]3C)cn2)c1=O [Compound 39] | 24 | 3 |
| CC(C)Nc1cc(-c2ccnc(-n3ccn4c5c(cc4c3=O)CC(C)(C)C5)c2CO)cn(C)c1=O [Compound 40] | > 3000 | > 3000 |
| CN(c1ccc(Nc2cc(-c3ccnc(-n4ccn5c6c(cc5c4=O)CC(C)(C)C6)c3CO)cn(C)c2=O)nc1)C1COC1 [Compound 41] | 12 | 2 |
| Cn1cc(-c2ccnc(-n3ccn4c5c(cc4c3=O)CC(C)(C)C5)c2CO)cc(Nc2ccc(NC3CCCOC3)cn2)c1=O (stereo not shown) [Compound 45] | 11 | 5 |
| Cn1cc(-c2ccnc(-n3ccn4c5c(cc4c3=O)CC(C)(C)C5)c2CO)cc(Nc2ccc(N[C@@H]3CC[C@@H](CO)OC3)cn2)c1=O [Compound 46] | 8 | 5 |
| Cn1cc(-c2ccnc(-n3ccn4c5c(cc4c3=O)CC(C)(C)C5)c2CO)cc(Nc2ccc(C(=O)N3CCOCC3)cn2)c1=O [Compound 47] | 3 | 3 |
| COCCN(c1ccc(Nc2cc(-c3ccnc(-n4ccn5c6c(cc5c4=O)CC(C)(C)C6)c3CO)cn(C)c2=O)nc1)C(C)C [Compound 51] | 10 | 8 |
| C[C@H]1CN(C2COC2)CCN1c1ccc(Nc2cc(-c3ccnc(-n4ccn5c(cc6cccc(F)c65)c4=O)c3CO)cn(C)c2=O)nc1 [Compound 52] | 18 | 18 |
| C[C@H]1CN(C2COC2)CCN1c1ccc(Nc2cc(-c3ccnc(-n4ccn5c(cc6c(F)cccc65)c4=O)c3CO)cn(C)c2=O)nc1 [Compound 53] | 33 | 25 |
| Cc1cc(Nc2cc(-c3ccnc(-n4ccn5c6c(cc5c4=O)CC(C)(C)C6)c3CO)cn(C)c2=O)ncn1 [Compound 54] | 15 | 16 |
| Cn1cc(-c2ccnc(-n3ccn4c5c(cc4c3=O)CC(C)(C)C5)c2CO)cc(Nc2ccccn2)c1=O [Compound 55] | 19 | 8 |
| C[C@@H]1CN(c2ccc(Nc3cc(-c4ccnc(-n5ccn6c(c(F)c7cc(F)ccc76)c5=O)c4CO)cn(C)c3=O)nc2)[C@@H](C)CN1C1COC1 [Compound 61] | 4 | 2 |
| C[C@H]1CN(C2COC2)CCN1c1ccc(Nc2cc(-c3ccnc(-n4ccn5c6c(c(Br)c5c4=O)CC(C)(C)C6)c3CO)cn(C)c2=O)nc1 [Compound 62] | 21 | 3 |
| C[C@H]1CN(C2COC2)CCN1c1ccc(Nc2cc(-c3ncnc(-n4ccn5c6c(cc5c4=O)CC(C)(C)C6)c3CO)cn(C)c2=O)nc1 [Compound 65] | 14 | 2 |
| C[C@H]1CN(C2CCOC2)CCN1c1ccc(Nc2cc(-c3ccnc(-n4ccn5c6c(cc5c4=O)CC(C)(C)C6)c3CO)cn(C)c2=O)nc1 (stereo partly shown) [Compound 66] | 11 | 2 |
| C[C@H]1CN(C2COC2)CCN1c1ccc(Nc2cc(-c3ccnc(-n4ccn5c(cc6cccnc65)c4=O)c3CO)cn(C)c2=O)nc1 [Compound 67] | 82 | 60 |
| CC(=O)N1CCn2nc(Nc3cc(-c4ccnc(-n5ccn6c7c(cc6c5=O)CC(C)(C)C7)c4CO)cn(C)c3=O)cc2C1 [Compound 68, 2-(5-((5-acetyl-4,5,6,7-tetrahydropyrazolo[1,5-a]pyrazin-2-yl)amino)-3′-(hydroxymethyl)-1-methyl-6-oxo-1,6-dihydro-[3,4′-bispyridin]-2′-yl)-7,7-dimethyl-7,8-dihydro-2H-cyclopenta[4,5]pyrrolo[1,2-a]pyrazin-1(6H)-one] | 5 | 2 |
| COCCN1CCn2nc(Nc3cc(-c4ccnc(-n5ccn6c7c(cc6c5=O)CC(C)(C)C7)c4CO)cn(C)c3=O)cc2C1 [Compound 70, 2-(3′-(hydroxymethyl)-5-((5-(2-methoxymethyl)-4,5,6,7-tetrahydropyrazolo[1,5-a]pyrazin-2-yl)amino)-1-methyl-6-oxo-1,6-dihydro-[3,4′-bispyridin]-2′-yl)-7,7-dimethyl-7,8-dihydro-2H-cyclopenta[4,5]pyrrolo[1,2-a]pyrazin-1(6H)-one] | 10 | 2 |
| C[C@H]1CN(C2COC2)CCN1c1ccc(Nc2cc(-c3ccnc(-n4ccn5c6c(cc5c4=O)CC(C)(C)C6)c3C=O)cn(C)c2=O)nc1 [Compound 72] | 58 | 97 |
| Cn1cc(Nc2cc(-c3ccnc(-n4ccn5c6c(cc5c4=O)CCC6)c3CO)cn(C)c2=O)nn1 [Compound 73] | 216 | 116 |
